Laboratory results published in ChEMBL document CHEMBL1149625, “Rational design of 6-(2,4-diaminopyrimidinyl)-1,4-benzoxazin-3-ones as small molecule renin inhibitors” (Bioorg Med Chem, 2007).
Values after ≈ are worked out from the molar mass of the structure shown. Blank lines part the entries; values can stand above or below the compound they belong to.

Columns and labels:
[1] = physchem; conditions: aqueous, pH 6.5, Solubility
[2] = buffer, pH 6.5
[3] = Cmax in rat at 1 mg/kg, iv or 5 mg/kg, po; format: ADME, organism-based; conditions: in vivo
[4] = Bioavailability in rat at 5 mg/kg, po; format: ADME, organism-based; conditions: in vivo
[5] = Volume of distribution at steady state in rat at 1 mg/kg, iv or 5 mg/kg, po; format: ADME, organism-based; conditions: in vivo, read-out: Vdss
[6] = in vivo; conditions: rat, po, 10 mg/kg
[7] = in vivo; conditions: rat, po, 10 mg/kg; remark: listed apart in the source
[8] = in vivo; conditions: rat, iv, 1 mg/kg
[9] = Bioavailability in dog at 5 mg/kg, po; format: ADME, organism-based, Canis lupus familiaris; conditions: in vivo
[10] = Volume of distribution at steady state in rat at […], iv or […], po; format: ADME, organism-based; conditions: in vivo, read-out: Vdss
[11] = Cmax in rat at […], iv or […], po; format: ADME, organism-based; conditions: in vivo
[12] = Bioavailability in rat at […], po; format: ADME, organism-based; conditions: in vivo

Compound: CCc1nc(N)nc(N)c1-c1ccc2c(c1)N(CCCOC)C(=O)C(C)(c1ccc(F)c(F)c1)O2 (racemic)
solubility [1]: 13 µg/mL (≈ 26.9 µM)

Compound: CCc1nc(N)nc(N)c1-c1ccc2c(c1)N(CCCOC)C(=O)C(C)(C)O2
solubility [1]: 34 µg/mL (≈ 88.2 µM)

Compound: CCc1nc(N)nc(N)c1-c1ccc2c(c1)N(CCCOC)C(=O)C(C)(c1cc(F)cc(F)c1)O2 (racemic)
solubility [2]: 87 µg/mL (≈ 180 µM) | Cmax [3]: 23 ng/mL | bioavailability [4]: 0.4% | Vd [5]: 4.5 L/kg

Compound: CCc1nc(N)nc(N)c1-c1ccc2c(c1)N(CCCC(F)(F)F)C(=O)[C@](C)(c1cc(F)cc(F)c1)O2
Cmax [6]: 380 ng/mL | bioavailability [7]: 74% | Vd [8]: 5.7 L/kg | bioavailability [9]: 19%

Compound: CCc1nc(N)nc(N)c1-c1ccc2c(c1)N(CCNC(C)=O)C(=O)C(C)(c1ccc(Cl)cc1)O2 (racemic)
solubility [1]: 12 µg/mL (≈ 24.2 µM)

Compound: CCc1nc(N)nc(N)c1-c1ccc2c(c1)N(CCCCO)C(=O)C(C)(c1cc(F)cc(F)c1)O2 (stereo not given)
Cmax [6]: 186 ng/mL | bioavailability [7]: 7% | solubility [1]: 59 µg/mL (≈ 122 µM) | Vd [8]: 2.3 L/kg

Compound: CCc1nc(N)nc(N)c1-c1ccc2c(c1)N(CCNC(C)=O)C(=O)C(C)(c1cccc(Cl)c1)O2 (racemic)
solubility [1]: 133 µg/mL (≈ 269 µM)

Compound: CCc1nc(N)nc(N)c1-c1ccc2c(c1)N(CCCC#N)C(=O)C(C)(c1cc(F)cc(F)c1)O2 (stereo not given)
Cmax [6]: 237 ng/mL | bioavailability [7]: 12% | solubility [1]: 3.5 µg/mL (≈ 7.31 µM) | Vd [8]: 1.9 L/kg

Compound: CCc1nc(N)nc(N)c1-c1ccc2c(c1)N(CCNC(C)=O)C(=O)C(C)(c1cc(F)ccc1F)O2 (racemic)
solubility [1]: 2.3 µg/mL (≈ 4.63 µM)

Compound: CCc1nc(N)nc(N)c1-c1ccc2c(c1)N(CCNC(C)=O)C(=O)[C@](C)(c1ccccc1)O2
solubility [1]: 119 µg/mL (≈ 258 µM)

Compound: CCc1nc(N)nc(N)c1-c1ccc2c(c1)N(CCCOC(F)(F)F)C(=O)C(C)(c1cc(F)cc(F)c1)O2 (stereo not given)
Cmax [6]: 200 ng/mL | bioavailability [7]: 28% | solubility [1]: 7.8 µg/mL (≈ 14.5 µM) | Vd [8]: 6.3 L/kg

Compound: CCc1nc(N)nc(N)c1-c1ccc2c(c1)N(CCCC(F)(F)F)C(=O)C(C)(c1cc(F)cc(F)c1)O2 (racemic)
Cmax [6]: 160 ng/mL | bioavailability [7]: 12% | solubility [1]: 5.2 µg/mL (≈ 9.97 µM) | Vd [8]: 5.1 L/kg

Compound: CCc1nc(N)nc(N)c1-c1ccc2c(c1)N(CCNC(C)=O)C(=O)C(C)(C(F)(F)F)O2 (stereo not given)
solubility [1]: 200 µg/mL (≈ 442 µM)

Compound: CCc1nc(N)nc(N)c1-c1ccc2c(c1)N(CCNC(=O)OC)C(=O)C(C)(c1cc(F)cc(F)c1)O2 (stereo not given)
Cmax [6]: 280 ng/mL | bioavailability [7]: 34% | Vd [8]: 3.5 L/kg

Compound: CCc1nc(N)nc(N)c1-c1ccc2c(c1)N(CCCO)C(=O)C(C)(c1cc(F)cc(F)c1)O2 (stereo not given)
solubility [1]: 28 µg/mL (≈ 59.6 µM) | Cmax [3]: 180 ng/mL | bioavailability [4]: 44% | Vd [5]: 3.1 L/kg

Compound: CCc1nc(N)nc(N)c1-c1ccc2c(c1)N(CCNC(C)=O)C(=O)C(C)(c1cc(F)cc(F)c1)O2 (racemic)
solubility [2]: 133 µg/mL (≈ 268 µM)

The remaining lines, values ahead:

solubility [1]: 12 µg/mL (≈ 22.7 µM)
Compound: CCc1nc(N)nc(N)c1-c1ccc2c(c1)N(CCNC(C)=O)C(=O)C(C)(c1cccc(C(F)(F)F)c1)O2 (racemic)

solubility [1]: 95 µg/mL (≈ 191 µM) | Cmax [3]: 220 ng/mL | bioavailability [4]: 8% | Vd [5]: 2.1 L/kg
Compound: CCc1nc(N)nc(N)c1-c1ccc2c(c1)N(CCNC(C)=O)C(=O)C(C)(c1cc(F)cc(F)c1)O2 (stereo in doubt; 26)

solubility [1]: 40 µg/mL (≈ 86.9 µM)
Compound: CCc1nc(N)nc(N)c1-c1ccc2c(c1)N(CCNC(C)=O)C(=O)[C@@](C)(c1ccccc1)O2

solubility [1]: 54 µg/mL (≈ 135 µM)
Compound: CCc1nc(N)nc(N)c1-c1ccc2c(c1)N(CCCOC)C(=O)C(C)(CC)O2 (stereo not given)

solubility [1]: 59 µg/mL (≈ 115 µM) | Vd [5]: 2.9 L/kg
Compound: CCc1nc(N)nc(N)c1-c1ccc2c(c1)N(CCNC(=O)CO)C(=O)C(C)(c1cc(F)cc(F)c1)O2 (stereo not given)

solubility [1]: 89 µg/mL (≈ 195 µM) | Vd [8]: 3.3 L/kg
Compound: CCc1nc(N)nc(N)c1-c1ccc2c(c1)N(CCO)C(=O)C(C)(c1cc(F)cc(F)c1)O2 (stereo not given)

Vd [10]: 2 L/kg | Cmax [11]: < 5 ng/mL | solubility [1]: 59 µg/mL (≈ 119 µM) | bioavailability [12]: 0%
Compound: CCOCCCN1C(=O)C(C)(c2cc(F)cc(F)c2)Oc2ccc(-c3c(N)nc(N)nc3CC)cc21 (stereo not given)

solubility [1]: 133 µg/mL (≈ 268 µM) | Vd [5]: 2.1 L/kg
Compound: CCc1nc(N)nc(N)c1-c1ccc2c(c1)N(CCC(=O)NC)C(=O)C(C)(c1cc(F)cc(F)c1)O2 (stereo not given)

solubility [1]: 16 µg/mL (≈ 38.7 µM)
Compound: CCc1nc(N)nc(N)c1-c1ccc2c(c1)N(CCCOC)C(=O)C(CC)(CC)O2

solubility [1]: 24 µg/mL (≈ 60.5 µM)
Compound: CCc1nc(N)nc(N)c1-c1ccc2c(c1)N(CCNC(C)=O)C(=O)C1(CC1)O2

solubility [1]: 2.6 µg/mL (≈ 5.23 µM)
Compound: CCc1nc(N)nc(N)c1-c1ccc2c(c1)N(CCCOC)C(=O)C(CC)(c1cc(F)cc(F)c1)O2 (racemic)

Vd [10]: 3.1 L/kg | Cmax [11]: 60 ng/mL | solubility [1]: 89 µg/mL (≈ 179 µM) | bioavailability [12]: 14%
Compound: CCNC(=O)CN1C(=O)C(C)(c2cc(F)cc(F)c2)Oc2ccc(-c3c(N)nc(N)nc3CC)cc21 (stereo not given)

solubility [1]: 87 µg/mL (≈ 180 µM)
Compound: CCc1nc(N)nc(N)c1-c1ccc2c(c1)N(CCCOC)C(=O)C(C)(c1cc(F)cc(F)c1)O2 (stereo in doubt; 25)

solubility [1]: 200 µg/mL (≈ 376 µM)
Compound: CCc1nc(N)nc(N)c1-c1ccc2c(c1)N(CCNS(C)(=O)=O)C(=O)C(C)(c1cc(F)cc(F)c1)O2 (stereo not given)
